US20250171454A1, “HETEROBIFUNCTIONAL […] AMINOPURINE AND RELATED COMPOUNDS AND THEIR USE IN NSD2 DEGRADATION AND TREATING MEDICAL CONDITIONS” (K36 Therapeutics, Inc., priority 2023, published 2025)

What follows are compounds tested against recombinant human NSD2 (amino acids 2-end) with N-terminal His tag (Homo sapiens (Human), UniProt O96028) (assay: NSD2 inhibitory activity, modified RBC HotSpot HMT Assay). Conditions: NSD2 2 nM, chicken oligonucleosomes 0.05 mg/mL, 3H-SAM 1 μM, 1 hour at 30° C.
Assay type: biochemical
Protocol: Exemplary compounds were tested for NSD2 inhibitory activity using a modified RBC HotSpot HMT Assay.
A reaction mixture was prepared by adding oligonucleosomes from chicken (0.05 mg/mL) to freshly prepared reaction buffer containing 50 mM Tris-HCl (pH 8.5), 50 mM NaCl, 5 mM MgCl2, 0.01% Brij35, 1 mM DTT, and 1% DMSO followed by the addition of recombinant human NSD2 (amino acids 2-end) with N-terminal His tag (2 nM; GenBank Accession No. NM_001042424; MW=155.5 kDa; expressed in Sf9 insect cells) and gentle mixing. The test compounds were diluted in DMSO (to 10 mM), and added to the reaction mixture in nanoliter amounts by using Acoustic Technology (Echo 550, LabCyte Inc. Sunnyvale, CA) and incubated for 20 minutes at room temperature. […] The reaction mixture was delivered to filter paper, and the methylated substrate was quantified by scintillation counting.
Data analysis was performed using Excel and GraphPad Prism software for IC50 curve fits. For additional information on the histone methyltransferase assay, see, for example, Horiuchi K Y, et al., “Assay Development for Histone Methyltransferases,” Assay Drug Dev Technol.

Chain of recombinant human NSD2 (amino acids 2-end) with N-terminal His tag (O96028 2-1365 limits assumed): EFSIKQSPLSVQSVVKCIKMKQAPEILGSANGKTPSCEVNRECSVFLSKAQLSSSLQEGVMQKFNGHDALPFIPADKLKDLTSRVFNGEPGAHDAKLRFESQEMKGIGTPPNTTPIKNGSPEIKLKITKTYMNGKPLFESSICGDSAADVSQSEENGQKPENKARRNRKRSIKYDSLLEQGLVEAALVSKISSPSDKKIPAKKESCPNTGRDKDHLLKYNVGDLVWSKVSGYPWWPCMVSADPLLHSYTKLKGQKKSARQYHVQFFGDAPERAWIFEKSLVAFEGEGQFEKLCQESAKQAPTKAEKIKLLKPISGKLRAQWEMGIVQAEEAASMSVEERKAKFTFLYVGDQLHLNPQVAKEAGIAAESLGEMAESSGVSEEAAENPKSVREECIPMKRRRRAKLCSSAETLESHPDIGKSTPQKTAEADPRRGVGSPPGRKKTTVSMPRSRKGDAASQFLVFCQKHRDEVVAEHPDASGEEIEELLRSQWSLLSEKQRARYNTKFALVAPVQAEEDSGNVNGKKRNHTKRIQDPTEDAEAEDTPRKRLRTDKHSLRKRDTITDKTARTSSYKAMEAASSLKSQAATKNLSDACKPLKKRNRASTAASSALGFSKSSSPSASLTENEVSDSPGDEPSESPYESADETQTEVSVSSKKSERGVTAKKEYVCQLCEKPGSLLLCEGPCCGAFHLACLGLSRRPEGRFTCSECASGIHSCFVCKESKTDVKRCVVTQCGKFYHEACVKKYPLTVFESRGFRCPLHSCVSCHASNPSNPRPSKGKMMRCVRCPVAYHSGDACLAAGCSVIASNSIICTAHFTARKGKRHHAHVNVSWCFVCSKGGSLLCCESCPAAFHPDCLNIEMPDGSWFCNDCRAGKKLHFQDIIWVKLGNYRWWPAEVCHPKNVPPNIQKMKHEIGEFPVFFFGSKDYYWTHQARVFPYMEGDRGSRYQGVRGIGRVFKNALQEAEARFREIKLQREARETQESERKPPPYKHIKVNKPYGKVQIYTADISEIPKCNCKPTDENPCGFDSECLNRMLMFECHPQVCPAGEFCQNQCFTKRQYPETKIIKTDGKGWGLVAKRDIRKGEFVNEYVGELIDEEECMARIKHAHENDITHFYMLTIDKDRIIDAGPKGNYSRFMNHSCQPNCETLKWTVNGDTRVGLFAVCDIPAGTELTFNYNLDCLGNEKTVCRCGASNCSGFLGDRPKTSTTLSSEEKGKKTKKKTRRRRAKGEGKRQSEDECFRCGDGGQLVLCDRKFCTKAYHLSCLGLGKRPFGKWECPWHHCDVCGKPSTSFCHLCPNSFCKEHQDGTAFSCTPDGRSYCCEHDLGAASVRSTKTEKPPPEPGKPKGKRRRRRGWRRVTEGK

| Compound | IC50 [nM] |
| --- | --- |
| Nc1ncnc2c1ncn2Cc1cc(-c2cc(F)c(OCC(=O)NCCCNc3cccc4c3C(=O)N(C3CCC(=O)NC3=O)C4=O)cc2F)ncc1N1CCC[C@](N)([C@H](O)C(F)F)C1 (stereo partly drawn) [I-66, 2-(4-(5-((R)-3-amino-3-((S)-2,2-difluoro-1-hydroxyethyl)piperidin-1-yl)-4-((6-amino-9H-purin-9-yl)methyl)pyridin-2-yl)-2,5-difluorophenoxy)-N-(3-((2-(2,6-dioxopiperidin-3-yl)-1,3-dioxoisoindolin-4-yl)amino)propyl)acetamide] | < 50 |
| Nc1ncnc2c1ncn2Cc1cc(-c2cc(F)c(OCCCCNc3cccc4c3C(=O)N(C3CCC(=O)NC3=O)C4=O)cc2F)ncc1N1CCC[C@](N)([C@H](O)C(F)F)C1 (stereo partly drawn) [I-61, 4-((4-(4-(5-((R)-3-amino-3-((S)-2,2-difluoro-1-hydroxyethyl)piperidin-1-yl)-4-((6-amino-9H-purin-9-yl)methyl)pyridin-2-yl)-2,5-difluorophenoxy)butyl)amino)-2-(2,6-dioxopiperidin-3-yl)isoindoline-1,3-dione] | < 50 |
| Nc1ncnc2c1ncn2Cc1cc(-c2cc(F)c(OCCCCCNc3cccc4c3C(=O)N(C3CCC(=O)NC3=O)C4=O)cc2F)ncc1N1CCC[C@](N)([C@H](O)C(F)F)C1 (stereo partly drawn) [I-62, 4-((5-(4-(5-((R)-3-amino-3-((S)-2,2-difluoro-1-hydroxyethyl)piperidin-1-yl)-4-((6-amino-9H-purin-9-yl)methyl)pyridin-2-yl)-2,5-difluorophenoxy)pentyl)amino)-2-(2,6-dioxopiperidin-3-yl)isoindoline-1,3-dione] | 50 to 100 |
| Nc1ncnc2c1ncn2Cc1cc(-c2cc(F)c(OCCCCNc3cccc4c3C(=O)N(C3CCC(=O)NC3=O)C4=O)c(F)c2)ncc1N1CCC[C@@](N)(c2ccccn2)C1 (stereo partly drawn) [I-68, 4-((4-(4-(5-((S)-3-amino-3-(pyridin-2-yl)piperidin-1-yl)-4-((6-amino-9H-purin-9-yl)methyl)pyridin-2-yl)-2,6-difluorophenoxy)butyl)amino)-2-(2,6-dioxopiperidin-3-yl)isoindoline-1,3-dione] | > 1000 |
| Nc1ncnc2c1ncn2Cc1cc(-c2cc(F)c(OCCCCCNc3cccc4c3C(=O)N(C3CCC(=O)NC3=O)C4=O)c(F)c2)ncc1N1CCC[C@](N)(c2ccccn2)C1 (stereo partly drawn) [I-69, 4-((5-(4-(5-((R)-3-amino-3-(pyridin-2-yl)piperidin-1-yl)-4-((6-amino-9H-purin-9-yl)methyl)pyridin-2-yl)-2,6-difluorophenoxy)pentyl)amino)-2-(2,6-dioxopiperidin-3-yl)isoindoline-1,3-dione] | < 50 |
| Nc1ncnc2c1ncn2Cc1cc(-c2cc(F)c(OCCCCNc3cccc4c3C(=O)N(C3CCC(=O)NC3=O)C4=O)c(F)c2)ncc1N1CCC[C@](N)(c2ccccn2)C1 (stereo partly drawn) [I-67, 4-((4-(4-(5-((R)-3-amino-3-(pyridin-2-yl)piperidin-1-yl)-4-((6-amino-9H-purin-9-yl)methyl)pyridin-2-yl)-2,6-difluorophenoxy)butyl)amino)-2-(2,6-dioxopiperidin-3-yl)isoindoline-1,3-dione] | < 50 |
| Nc1ncnc2c1ncn2Cc1cc(-c2cc(F)c(OCC(=O)Nc3cccc4c3C(=O)N(C3CCC(=O)NC3=O)C4=O)cc2F)ncc1N1CCC[C@](N)([C@H](O)C(F)F)C1 (stereo partly shown) [I-64] | < 50 |
| Nc1ncnc2c1ncn2Cc1cc(-c2cc(F)c(OCC(=O)NCCNc3cccc4c3C(=O)N(C3CCC(=O)NC3=O)C4=O)cc2F)ncc1N1CCC[C@](N)([C@H](O)C(F)F)C1 (stereo partly drawn) [I-65, 2-(4-(5-((R)-3-amino-3-((S)-2,2-difluoro-1-hydroxyethyl)piperidin-1-yl)-4-((6-amino-9H-purin-9-yl)methyl)pyridin-2-yl)-2,5-difluorophenoxy)-N-(2-((2-(2,6-dioxopiperidin-3-yl)-1,3-dioxoisoindolin-4-yl)amino)ethyl)acetamide] | < 50 |
| Nc1ncnc2c1ncn2Cc1cc(-c2cc(F)c(OCCCCCNc3cccc4c3C(=O)N(C3CCC(=O)NC3=O)C4=O)c(F)c2)ncc1N1CCC[C@@](N)(c2ccccn2)C1 (stereo partly shown) [I-70] | > 1000 |
| Nc1ncnc2c1ncn2Cc1cc(-c2cc(F)c(OCCCCCCNc3cccc4c3C(=O)N(C3CCC(=O)NC3=O)C4=O)cc2F)ncc1N1CCC[C@](N)([C@H](O)C(F)F)C1 (stereo partly drawn) [I-63, 4-((6-(4-(5-((R)-3-amino-3-((S)-2,2-difluoro-1-hydroxyethyl)piperidin-1-yl)-4-((6-amino-9H-purin-9-yl)methyl)pyridin-2-yl)-2,5-difluorophenoxy)hexyl)amino)-2-(2,6-dioxopiperidin-3-yl)isoindoline-1,3-dione] | 100 to 1000 |

Continued, values first:

| IC50 [nM] | Compound |
| --- | --- |
| 100 to 1000 | Cc1ncsc1-c1ccc(CNC(=O)[C@@H]2C[C@@H](O)CN2C(=O)[C@@H](NC(=O)CCCCCCCCCCCOc2cc(F)c(-c3cc(Cn4cnc5c(N)ncnc54)c(N4CCC[C@](N)([C@H](O)C(F)F)C4)cn3)cc2F)C(C)(C)C)cc1 [I-85] |
| 100 to 1000 | Cc1ncsc1-c1ccc(CNC(=O)[C@@H]2C[C@@H](O)CN2C(=O)[C@@H](NC(=O)CCOCCOCCOCCOc2cc(F)c(-c3cc(Cn4cnc5c(N)ncnc54)c(N4CCC[C@](N)([C@H](O)C(F)F)C4)cn3)cc2F)C(C)(C)C)cc1 [I-84] |
| > 1000 | COc1c(F)cc(-c2cc(Cn3cnc4c(NCCCCCCNc5cccc6c5C(=O)N(C5CCC(=O)NC5=O)C6=O)ncnc43)c(N3CCC[C@](N)(c4ccccn4)C3)cn2)cc1F (stereo partly drawn) [I-80, 4-((6-((9-((5-((R)-3-amino-3-(pyridin-2-yl)piperidin-1-yl)-2-(3,5-difluoro-4-methoxyphenyl)pyridin-4-yl)methyl)-9H-purin-6-yl)amino)hexyl)amino)-2-(2,6-dioxopiperidin-3-yl)isoindoline-1,3-dione] |
| 100 to 1000 | COc1c(F)cc(-c2cc(Cn3cnc4c(NCCCCCNc5cccc6c5C(=O)N(C5CCC(=O)NC5=O)C6=O)ncnc43)c(N3CCC[C@](N)(c4ccccn4)C3)cn2)cc1F (stereo partly drawn) [I-79, 4-((5-((9-((5-((R)-3-amino-3-(pyridin-2-yl)piperidin-1-yl)-2-(3,5-difluoro-4-methoxyphenyl)pyridin-4-yl)methyl)-9H-purin-6-yl)amino)pentyl)amino)-2-(2,6-dioxopiperidin-3-yl)isoindoline-1,3-dione] |
| > 1000 | COc1cc(F)c(-c2cc(Cn3cnc4c(NCCCCCCNc5cccc6c5C(=O)N(C5CCC(=O)NC5=O)C6=O)ncnc43)c(N3CCC[C@](N)([C@H](O)C(F)F)C3)cn2)cc1F (stereo partly drawn) [I-77, 4-((6-((9-((5-((R)-3-amino-3-((S)-2,2-difluoro-1-hydroxyethyl)piperidin-1-yl)-2-(2,5-difluoro-4-methoxyphenyl)pyridin-4-yl)methyl)-9H-purin-6-yl)amino)hexyl)amino)-2-(2,6-dioxopiperidin-3-yl)isoindoline-1,3-dione] |
| > 1000 | COc1cc(F)c(-c2cc(Cn3cnc4c(NCCCCCNc5cccc6c5C(=O)N(C5CCC(=O)NC5=O)C6=O)ncnc43)c(N3CCC[C@](N)([C@H](O)C(F)F)C3)cn2)cc1F (stereo partly drawn) [I-76, 4-((5-((9-((5-((R)-3-amino-3-((S)-2,2-difluoro-1-hydroxyethyl)piperidin-1-yl)-2-(2,5-difluoro-4-methoxyphenyl)pyridin-4-yl)methyl)-9H-purin-6-yl)amino)pentyl)amino)-2-(2,6-dioxopiperidin-3-yl)isoindoline-1,3-dione] |
| > 1000 | COc1c(F)cc(-c2cc(Cn3cnc4c(NCCCCCCCNc5cccc6c5C(=O)N(C5CCC(=O)NC5=O)C6=O)ncnc43)c(N3CCC[C@](N)(c4ccccn4)C3)cn2)cc1F (stereo partly drawn) [I-82, 4-((7-((9-((5-((R)-3-amino-3-(pyridin-2-yl)piperidin-1-yl)-2-(3,5-difluoro-4-methoxyphenyl)pyridin-4-yl)methyl)-9H-purin-6-yl)amino)heptyl)amino)-2-(2,6-dioxopiperidin-3-yl)isoindoline-1,3-dione] |
| 50 to 100 | COc1c(F)cc(-c2cc(Cn3cnc4c(NCCCCCCNc5cccc6c5C(=O)N(C5CCC(=O)NC5=O)C6=O)ncnc43)c(N3CCC[C@@](N)(c4ccccn4)C3)cn2)cc1F (stereo partly drawn) [I-81, 4-((6-((9-((5-((S)-3-amino-3-(pyridin-2-yl)piperidin-1-yl)-2-(3,5-difluoro-4-methoxyphenyl)pyridin-4-yl)methyl)-9H-purin-6-yl)amino)hexyl)amino)-2-(2,6-dioxopiperidin-3-yl)isoindoline-1,3-dione] |
| < 50 | Nc1ncnc2c1ncn2Cc1cc(-c2cc(F)c(OCCCCCCNc3cccc4c3C(=O)N(C3CCC(=O)NC3=O)C4=O)c(F)c2)ncc1N1CCC[C@](N)(c2ccccn2)C1 (stereo partly drawn) [I-71, 4-((6-(4-(5-((R)-3-amino-3-(pyridin-2-yl)piperidin-1-yl)-4-((6-amino-9H-purin-9-yl)methyl)pyridin-2-yl)-2,6-difluorophenoxy)hexyl)amino)-2-(2,6-dioxopiperidin-3-yl)isoindoline-1,3-dione] |
